# Test results as given in patent US11197812B2, “Cosmetic formulations for topical applications containing erythropoietin-derived molecules” (ASC REGENITY LTD., priority 2016, dated 2021).
# Where no end group is shown, it is not given here.
# Tests used:
# [1] = test system: persons suffering from acne; settings: human, in vivo
# Description: Four test groups (corresponding to the “peptides, 0, 2, 3 and 4”) with each five persons (in total, 20 subjects) suffering from acne, were treated twice daily with a formulation of the invention (“iARP-lotion” with trigger factor complex) for one week. No undesirable or even pathological lesions in the relevant skin area of the test persons were observed.
# [2] = test system: facial skin of healthy subjects; experiment: Cosmetic skin improvement assay (Canfield VISIA facial skin analysis); type: in vivo, human; settings: cream once a day, after one month, versus controls / dexpanthenol 5% / QEQLERALNSS formulation
# From the text: In this assay the cosmetic facial skin appearance upon application of the formulations of this invention was monitored. For that purpose, the commercially available state-of-the-art facial skin imaging and data analysis platform, the Canfield Bio Visia™, was utilized, (see here: https://www.canfieldsci.com/imaging-systems/visia-complexion-analysis/). This platform provides the possibility of a i) highly standardized, ii) highly reproducible, iii) quantitative, iv) non-invasive, and vi) subject or tester bias-free skin quality analysis. It records several photos of the face from different angles and records absorption/reflection spectra (see figure: Canfield VISIA facial skin analysis platform). […] The in-built software standardizes every parameter by comparison to a large database of skin feature norms and returns a value in the range of 0%-to 100% to permit inter-individual subject comparison.
# Healthy subjects received cosmetic creams with formulations of this invention or controls in a blinded manner, i.e. the subjects were unaware of the identity of the received cosmetic cream. […] Subject skin quality was assessed before the start of the application and after one month (31±3 days). As a control, to account for seasonal and lifestyle change associated skin quality changes, quality of the hand exterior surface was monitored as well. […]
# [3] = test system: UV light-induced erythema on skin of healthy subjects; experiment: Erythema recovery assay (UVB light-induced erythema, doubled MED); type: in vivo, human; settings: 20 μl lotion on 1×1 cm^2 area, 6 hours after exposure, normalized redness
# From the text: Another means of measuring the efficacy of tissue-protection exerted by any formulation is the speed of skin recovery from a UVB light-induced erythema such as common sunburns. Erythema are skin irritations with enhanced redness of the skin due to local hyperaemia (enhanced blood flow in superficial capillaries) that is associated with repair processes in the skin. The quicker the repair process is, the quicker the hyperaemia gets shut down and thus the quicker the skin redness gets reduced to normal levels. Accordingly, the redness can be measured as a proxy for the damage status of the skin.
# In this assay, healthy subjects received the doubled minimal erythema dose (MED) on skin areas of about 1×1 cm^2 on the left arm. Beforehand, the MED was determined individually for each subject by exposing other skin areas to increasing intensities of UV light emitted by the UV6 lamp (280-360 nm) of the Waldmann UV 802 L device. […]
# Before light double MED exposure and after 6 hours, skin redness in the exposed area was spectroscopically measured using the ‘chroma meter CR-400’ manufactured by Konica Minolta. Redness of every area in every subject 6 hours after the exposure was normalized to the redness of the same area before the exposure by division of measured redness values. […]
# skin = experiment: Relative cosmetic relevance in over-all skin-protective activity; parameters: species or system human
# [4] = test system: severe acne on the face and neck; experiment: Acne Trial 1 (single test person); type: in vivo, human; settings: after one week of treatment with the respective formulation
# Description: The test person was a person with severe acne on the face and neck. They were treated for one week with a standard cosmetic formulation based on a control lipid (dexpanthenol/panthenol), but without a polypeptide according to the invention. […] Then a cosmetic formulation according to the invention was applied, but again without a polypeptide according to the invention. The formulation contained ceramides and lecithin instead of dexpanthanol, and amino acids such as L-arginine. […] The test person then was treated with a formulation of the invention now comprising “Peptide 0”. […] After 3 weeks the test person was treated with the same formulation but which now comprised “Peptide 4” instead of the reference polypeptide (“Peptide 0”).
compound,measurement,setting,value
"QEQLERALNSS [Peptide 0, QEQLERALNSS, reference compound]",unwanted skin reactions caused by skin-irritating or sensitizing effects,[1],did not trigger any unwanted skin reactions
NEQLERALNST (RRQEQLERALNSSRR; ′Peptide 0′ plus vasculature relaxation stimulating agents at 5′- and 3′ end;) [Peptide 1],"improvement of measured skin parameters (spots, wrinkles, smoothness)",[2],performed even better than the formulations with the previously described […] peptide
same,double MED-induced skin redness (erythema),[3],performed even better than the formulations with the previously described […] peptide
same,relative cosmetic relevance in over-all skin-protective activity (rank order),skin,"EPO<EPO fragments 1-3<Peptide 0, 1<Peptide 3<Peptide 2<Peptide 4"
"NEQLERALNTS [Peptide 2, NEQLERALNTS]",overall skin tolerance compatibility,[1],improved overall skin tolerance compatibility as excellent
same,unwanted skin reactions caused by skin-irritating or sensitizing effects,[1],did not trigger any unwanted skin reactions
"QDQLERALNTS [Peptide 4, QDQLERALNTS]",overall skin tolerance compatibility,[1],still rated good
same,unwanted skin reactions caused by skin-irritating or sensitizing effects,[1],did not trigger any unwanted skin reactions
"QDQLERALNST [Peptide 3, QDQLERALNST]",overall skin tolerance compatibility,[1],improved overall skin tolerance compatibility as excellent
same,unwanted skin reactions caused by skin-irritating or sensitizing effects,[1],did not trigger any unwanted skin reactions
CC(C)(CO)[C@@H](O)C(=O)NCCCO [Dexpanthenol],change of acne,[4],slightly reduced
